Molecular target: T1, sodium ion channel (Nav1.7) (Homo sapiens, UniProt Q15858)
T1 construct: host or cells: HEK293
Assay: Blocking effect against sodium ion channel (Nav1.7), IonFlux16 auto patch clamp, hNav1.7 HEK293 cells
Format: cell-based
Details: peak current after 50 seconds treatment, eight concentrations
Experimental: In order to measure the activities of the inventive compounds as antagonists, an experiment on a blocking effect against the sodium ion channel (Nav1.7) was carried out as follows.
The hNav1.7 HEK293 cell line used was a cell line having a human sodium ion channel 1.7 gene (type IX voltage-gated sodium channel alpha subunit) in human embryonic kidney (HEK) 293 cells and was purchased from Millipore. The medium used was prepared by adding 1% 100×NEAA and 10% heat inactivated FBS to DMEM F-12 and adding 1% P/S as an antibiotic thereto. G-418 as a […] was added during subculture, and the hNav1.7 HEK293 cells were cultured to a confluence of about 80% in a T75 flask in a 5% CO2 incubator at 37° C. for 2 or 3 days and detached from the flask by treatment with 0.25% trypsin solution. Then, the cells were collected by centrifugation and used in the experiment.
The compounds prepared in the Examples of the present invention were dissolved in dimethyl sulfoxide (DMSO) and used in the experiment. 90 mM and 10 mM DMSO stock solutions were prepared from each of the compounds and diluted in an extracellular solution (4 mM KCl, 138 mM NaCl, 1 mM MgCl2, 1.8 mM CaCl2, 5.6 mM glucose, 10 mM HEPES, pH 7.45) at various concentrations so that the final concentration of each compound in DMSO was 0.3% or less.
To measure the sodium ion channel blocking effect, an IonFlux16 Auto patch clamp system (Fluxion, Inc.) and a plate for exclusive use were used. The cells were distributed in an extracellular solution (4 mM KCl, 138 mM NaCl, 1 mM MgCl2, 1.8 mM CaCl2, 5.6 mM glucose, 10 mM HEPES, pH 7.45), and then dispensed in the specified region of the plate, and each of the prepared compound samples was diluted at various concentrations, and then dispensed in the specified region of the plate.
Specifically, eight concentrations per compound were set, and percent inhibition was determined by calculating the percentage of inhibition of the peak current, generated after treating the cells with each concentration of the compound for 50 seconds, relative to the peak current generated before treatment with the compound, and the IC50 value was calculated using the Sigma plot program. In Table 2 below, the percent inhibition of Nav1.7 is rated as follows: […]

T1 sequence (Q15858 whole entry): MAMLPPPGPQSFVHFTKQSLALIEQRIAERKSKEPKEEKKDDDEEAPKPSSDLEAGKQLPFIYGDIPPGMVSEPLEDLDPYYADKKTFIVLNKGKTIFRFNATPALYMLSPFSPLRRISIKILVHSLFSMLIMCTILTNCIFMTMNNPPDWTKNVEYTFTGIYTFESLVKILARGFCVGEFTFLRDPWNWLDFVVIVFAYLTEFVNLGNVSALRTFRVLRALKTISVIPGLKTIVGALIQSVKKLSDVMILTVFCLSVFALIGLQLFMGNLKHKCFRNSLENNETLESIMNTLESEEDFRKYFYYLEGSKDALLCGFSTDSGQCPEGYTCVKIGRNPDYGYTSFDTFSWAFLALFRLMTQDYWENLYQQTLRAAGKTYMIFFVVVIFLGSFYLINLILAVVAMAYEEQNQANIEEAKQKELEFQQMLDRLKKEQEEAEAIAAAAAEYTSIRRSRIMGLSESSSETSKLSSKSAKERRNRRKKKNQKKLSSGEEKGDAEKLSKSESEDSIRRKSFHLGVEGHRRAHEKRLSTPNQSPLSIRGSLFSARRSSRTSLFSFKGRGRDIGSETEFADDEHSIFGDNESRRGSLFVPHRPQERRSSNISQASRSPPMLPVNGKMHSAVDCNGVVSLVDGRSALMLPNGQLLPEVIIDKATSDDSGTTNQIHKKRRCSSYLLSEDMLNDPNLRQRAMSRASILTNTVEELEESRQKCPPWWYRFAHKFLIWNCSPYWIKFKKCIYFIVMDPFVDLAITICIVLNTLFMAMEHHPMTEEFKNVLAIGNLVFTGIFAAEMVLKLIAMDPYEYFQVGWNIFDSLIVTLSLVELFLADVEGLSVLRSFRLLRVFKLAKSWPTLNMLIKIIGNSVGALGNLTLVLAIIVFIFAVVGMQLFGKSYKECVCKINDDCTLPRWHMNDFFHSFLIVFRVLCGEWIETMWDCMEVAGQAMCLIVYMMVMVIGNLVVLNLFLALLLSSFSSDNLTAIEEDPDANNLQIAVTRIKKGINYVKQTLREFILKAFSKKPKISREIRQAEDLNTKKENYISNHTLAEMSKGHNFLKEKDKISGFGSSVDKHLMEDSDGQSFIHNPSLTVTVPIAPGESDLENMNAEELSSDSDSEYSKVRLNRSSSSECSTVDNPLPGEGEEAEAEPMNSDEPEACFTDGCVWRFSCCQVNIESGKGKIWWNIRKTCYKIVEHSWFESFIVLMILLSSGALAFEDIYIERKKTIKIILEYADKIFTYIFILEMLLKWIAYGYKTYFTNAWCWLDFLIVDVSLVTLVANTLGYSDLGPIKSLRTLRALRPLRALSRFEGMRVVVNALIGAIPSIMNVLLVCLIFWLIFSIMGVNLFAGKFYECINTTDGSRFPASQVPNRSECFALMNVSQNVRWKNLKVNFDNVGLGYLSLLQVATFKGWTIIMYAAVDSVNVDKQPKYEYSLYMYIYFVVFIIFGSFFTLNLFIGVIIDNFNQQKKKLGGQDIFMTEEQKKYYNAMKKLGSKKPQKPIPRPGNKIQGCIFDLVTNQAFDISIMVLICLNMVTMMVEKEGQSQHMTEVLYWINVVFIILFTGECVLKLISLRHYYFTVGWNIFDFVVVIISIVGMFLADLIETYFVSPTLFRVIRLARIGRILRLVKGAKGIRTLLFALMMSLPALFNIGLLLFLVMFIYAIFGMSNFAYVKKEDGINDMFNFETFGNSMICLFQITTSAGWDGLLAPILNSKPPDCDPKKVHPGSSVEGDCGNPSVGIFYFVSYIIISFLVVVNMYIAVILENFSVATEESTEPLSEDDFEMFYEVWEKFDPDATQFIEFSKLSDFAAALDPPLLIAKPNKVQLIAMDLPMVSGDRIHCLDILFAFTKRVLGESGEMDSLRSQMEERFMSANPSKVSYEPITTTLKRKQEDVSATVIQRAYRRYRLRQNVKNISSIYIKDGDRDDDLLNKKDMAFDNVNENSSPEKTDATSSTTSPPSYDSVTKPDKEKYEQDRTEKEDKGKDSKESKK

Structure (SMILES)	IC50 [nM]
Cn1nccc1-c1cc(-c2ccnc(F)c2)ncc1Oc1ccc(S(=O)(=O)Nc2nccs2)cc1C#N [Example 27, 3-cyano-4-((2′-fluoro-4-(1-methyl-1H-pyrazol-5-yl)-[2,4′-bipyridin]-5-yl)oxy)-N-(thiazol-2-yl)benzenesulfonamide]	> 100
O=S(=O)(Nc1nccs1)c1ccc(Oc2cnc(-c3ccoc3)cc2-c2ccoc2)cc1 [Example 28, 4-((4,6-di(furan-3-yl)pyridin-3-yl)oxy)-N-(thiazol-2-yl)benzenesulfonamide]	> 100
N#Cc1cc(S(=O)(=O)Nc2nccs2)ccc1Oc1cnc(-c2ccccc2)cc1-c1cccnc1F [Example 29, 3-cyano-4-((2-fluoro-6′-phenyl-[3,4′-bipyridin]-3′-yl)oxy)-N-(thiazol-2-yl)benzenesulfonamide]	> 100
N#Cc1cc(S(=O)(=O)Nc2nccs2)ccc1Oc1cnc(-c2ccccc2)cc1-c1ccc(F)nc1 [Example 30, 3-cyano-4-((6-fluoro-6′-phenyl-[3,4′-bipyridin]-3′-yl)oxy)-N-(thiazol-2-yl)benzenesulfonamide]	> 100
N#Cc1cc(S(=O)(=O)Nc2nccs2)ccc1Oc1cnc(-c2ccccc2)cc1-c1ccnc(F)c1 [Example 31, 3-cyano-4-((2′-fluoro-6-phenyl-[4,4′-bipyridin]-3-yl)oxy)-N-(thiazol-2-yl)benzenesulfonamide]	51 to 100
Cc1cc(-c2cc(-c3ccccc3)ncc2Oc2ccc(S(=O)(=O)Nc3nccs3)cc2C#N)cnc1F [Example 32, 3-cyano-4-((6-fluoro-5-methyl-6′-phenyl-[3,4′-bipyridin]-3′-yl)oxy)-N-(thiazol-2-yl)benzenesulfonamide]	> 100
N#Cc1cc(S(=O)(=O)Nc2nccs2)ccc1Oc1cnc(-c2ccccc2)cc1-c1cccnc1 [Example 33, 3-cyano-4-((6′-phenyl-[3,4′-bipyridin]-3′-yl)oxy)-N-(thiazol-2-yl)benzenesulfonamide]	> 100
N#Cc1cc(S(=O)(=O)Nc2nccs2)ccc1Oc1cnc(-c2ccccc2)cc1-c1cncnc1 [Example 34, 3-cyano-4-((6-phenyl-4-(pyrimidin-5-yl)pyridin-3-yl)oxy)-N-(thiazol-2-yl)benzenesulfonamide]	> 100
N#Cc1cc(S(=O)(=O)Nc2nccs2)ccc1Oc1cnc(-c2ccccc2)cc1-c1ccncc1Cl [Example 35, 4-((3′-chloro-6-phenyl-[4,4′-bipyridin]-3-yl)oxy)-3-cyano-N-(thiazol-2-yl)benzenesulfonamide]	> 100
N#Cc1cc(S(=O)(=O)Nc2nccs2)ccc1Oc1cnc(-c2ccccc2)cc1-c1ccnc(Cl)c1Cl [Example 36, 3-cyano-4-((2′,3′-dichloro-6-phenyl-[4,4′-bipyridin]-3-yl)oxy)-N-(thiazol-2-yl)benzenesulfonamide]	> 100
Cc1noc(C)c1-c1cc(-c2ccccc2)ncc1Oc1ccc(S(=O)(=O)Nc2nccs2)cc1C#N [Example 37, 3-cyano-4-((4-(3,5-dimethylisoxazol-4-yl)-6-phenylpyridin-3-yl)oxy)-N-(thiazol-2-yl)benzenesulfonamide]	> 100
Cn1cc(-c2cc(-c3ccccc3)ncc2Oc2ccc(S(=O)(=O)Nc3nccs3)cc2C#N)cn1 [Example 38, 3-cyano-4-((4-(1-methyl-1H-pyrazol-4-yl)-6-phenylpyridin-3-yl)oxy)-N-(thiazol-2-yl)benzenesulfonamide]	> 100
N#Cc1cc(S(=O)(=O)Nc2nccs2)ccc1Oc1cnc(-c2ccccc2)cc1-c1cn[nH]c1 [Example 39, 3-cyano-4-((6-phenyl-4-(1H-pyrazol-4-yl)pyridin-3-yl)oxy)-N-(thiazol-2-yl)benzenesulfonamide]	51 to 100
N#Cc1cc(S(=O)(=O)Nc2nccs2)ccc1Oc1cnc(-c2ccccc2)cc1-c1ccncc1 [Example 40, 3-cyano-4-((6-phenyl-[4,4′-bipyridin]-3-yl)oxy)-N-(thiazol-2-yl)benzenesulfonamide]	> 100
Cc1cc(-c2cc(-c3ccccc3)ncc2Oc2ccc(S(=O)(=O)Nc3nccs3)cc2C#N)c(C)s1 [Example 41, 3-cyano-4-((4-(2,5-dimethylthiophen-3-yl)-6-phenylpyridin-3-yl)oxy)-N-(thiazol-2-yl)benzenesulfonamide]	> 100
Cc1ccc(-c2cc(-c3ccccc3)ncc2Oc2ccc(S(=O)(=O)Nc3nccs3)cc2C#N)s1 [Example 42, 3-cyano-4-((4-(5-methylthiophen-2-yl)-6-phenylpyridin-3-yl)oxy)-N-(thiazol-2-yl)benzenesulfonamide]	> 100
N#Cc1cc(S(=O)(=O)Nc2nccs2)ccc1Oc1cnc(-c2ccccc2)cc1-c1csc(C2CC2)n1 [Example 43, 3-cyano-4-((4-(2-cyclopropylthiazol-4-yl)-6-phenylpyridin-3-yl)oxy)-N-(thiazol-2-yl)benzenesulfonamide]	> 100
N#Cc1cc(S(=O)(=O)Nc2nccs2)ccc1Oc1cnc(-c2ccccc2)cc1-c1cnn(C2CC2)c1 [Example 44, 3-cyano-4-((4-(1-cyclopropyl-1H-pyrazol-4-yl)-6-phenylpyridin-3-yl)oxy)-N-(thiazol-2-yl)benzenesulfonamide]	> 100
N#Cc1cc(S(=O)(=O)Nc2nccs2)ccc1Oc1cnc(-c2cn[nH]c2)cc1-c1ccoc1 [Example 45, 3-cyano-4-((4-(furan-3-yl)-6-(1H-pyrazol-4-yl)pyridin-3-yl)oxy)-N-(thiazol-2-yl)benzenesulfonamide]	> 100
Cn1cc(-c2cc(-c3ccoc3)c(Oc3ccc(S(=O)(=O)Nc4nccs4)cc3C#N)cn2)cn1 [Example 46, 3-cyano-4-((4-(furan-3-yl)-6-(1-methyl-1H-pyrazol-4-yl)pyridin-3-yl)oxy)-N-(thiazol-2-yl)benzenesulfonamide]	> 100
O=S(=O)(Nc1nccs1)c1ccc(Oc2cnc(-c3cccnc3F)cc2-c2ccoc2)c(F)c1 [Example 47, 3-fluoro-4-((2′-fluoro-4-(furan-3-yl)-[2,3′-bipyridin]-5-yl)oxy)-N-(thiazol-2-yl)benzenesulfonamide]	> 100
O=S(=O)(Nc1nccs1)c1ccc(Oc2cnc(-c3ccc(F)nc3)cc2-c2ccoc2)c(F)c1 [Example 48, 3-fluoro-4-((6′-fluoro-4-(furan-3-yl)-[2,3′-bipyridin]-5-yl)oxy)-N-(thiazol-2-yl)benzenesulfonamide]	> 100
N#Cc1cc(S(=O)(=O)Nc2nccs2)ccc1Oc1cnc(-c2ccc(F)nc2)cc1-c1cccnc1 [Example 49, 3-cyano-4-((6-fluoro-[3,2′:4′,3″-terpyridin]-5′-yl)oxy)-N-(thiazol-2-yl)benzenesulfonamide]	> 100
N#Cc1cc(S(=O)(=O)Nc2nccs2)ccc1Oc1cnc(-c2cccc(F)c2)cc1-c1cccnc1 [Example 50, 3-cyano-4-((6′-(3-fluorophenyl)-[3,4′-bipyridin]-3′-yl)oxy)-N-(thiazol-2-yl)benzenesulfonamide]	< 50
N#Cc1cc(S(=O)(=O)Nc2nccs2)ccc1Oc1cnc(-c2cccnc2F)cc1-c1cccnc1 [Example 51, 3-cyano-4-((2-fluoro-[3,2′:4′,3″-terpyridin]-5′-yl)oxy)-N-(thiazol-2-yl)benzenesulfonamide]	> 100
N#Cc1cc(S(=O)(=O)Nc2nccs2)ccc1Oc1cnc(-c2ccccc2F)cc1-c1cccnc1 [Example 52, 3-cyano-4-((6′-(2-fluorophenyl)-[3,4′-bipyridin]-3′-yl)oxy)-N-(thiazol-2-yl)benzenesulfonamide]	> 100
N#Cc1cc(S(=O)(=O)Nc2nccs2)ccc1Oc1cnc(-c2ccc(F)nc2F)cc1-c1ccncc1 [Example 53, 3-cyano-4-((2,6-difluoro-[3,2′:4′,4″-terpyridin]-5′-yl)oxy)-N-(thiazol-2-yl)benzenesulfonamide]	> 100
Cn1cc(-c2cc(-c3cnn(C)c3)c(Oc3ccc(S(=O)(=O)Nc4nccs4)cc3C#N)cn2)cn1 [Example 54, 4-((4,6-bis(1-methyl-1H-pyrazol-4-yl)pyridin-3-yl)oxy)-3-cyano-N-(thiazol-2-yl)benzenesulfonamide]	> 100
Cn1cc(-c2cc(-c3cnn(C)c3)c(Oc3ccc(S(=O)(=O)Nc4ncns4)cc3C#N)cn2)cn1 [Example 55, 4-((4,6-bis(1-methyl-1H-pyrazol-4-yl)pyridin-3-yl)oxy)-3-cyano-N-(1,2,4-thiadiazol-5-yl)benzenesulfonamide]	> 100
O=S(=O)(Nc1cscn1)c1cc(Cl)c(Oc2cnc(-c3cccnc3F)cc2-c2ccoc2)cc1F [Example 56, 5-chloro-2-fluoro-4-((2′-fluoro-4-(furan-3-yl)-[2,3′-bipyridin]-5-yl)oxy)-N-(thiazol-4-yl)benzenesulfonamide]	> 100

Source: US9376429B2, “Sodium channel blockers, preparation method thereof and use thereof” (Daewoong Pharmaceutical Co., Ltd., priority 2012, dated 2016)
